# Experimental data reported in patent US20260240820A1, “METHOD FOR CONTROLLING MEMBRANE POTENTIAL-DEPENDENT ION CHANNEL THROUGH TYPE I TASTE RECEPTORS (T1RS)” (ION CHAT RESEARCH CORPORATE, priority 2022, published 2026).
# Values joined by “and” are separate entries in the source; they are usually repeats but may differ in a detail not shown here. Identical values can stand only once. “Also recorded” adds a separate entry of the source. Like-named read-outs stand apart in the source and are kept apart here.
# Columns and labels:
# Nav1.5 = test: Patch-clamp (voltage clamp) recording of VGSC current in HEK cells stably expressing Nav1.5; details: for IC50: read-out: IC50 (VGSC inhibition)
# SH-SY5Y cells [1] = test: Cell morphology observation, SH-SY5Y cells; format: cell-based, human; details: 120 μM; undifferentiated SH-SY5Y cells
# Nav1.6 [2] = test: Patch-clamp recording of VGSC current in HEK (Nav1.6) cells; format: cell-based, human
# VGSC = test: Patch-clamp recording of VGSC current, cell type not specified or several cell types (summary statements); format: cell-based, human; details: for IC50: read-out: IC50 for inhibition of VGSC; for Enhancement of VGSC current at high(er) concentration: high concentration (desensitization)
# SH-SY5Y cells [3] = test: Action potentials of differentiated SH-SY5Y cells (current clamp, NanoCharge method); format: cell-based, human; details: listed as Aβ25-35 peptide
# Description: Next, using the current-clamp mode, we applied current stimulation and recorded action potentials from differentiated SH-SY5Y cells (FIG. 5, from the lower to the upper part of the figure, rectangular wave current stimulation was applied. The current strengths were 6, 8, 10, and 12 pA from the bottom). Before the application of Aβ25-35 peptide, action potentials were not induced at stimulation currents of 6 pA and 8 pA, but action potentials were recorded at stronger stimulation currents (10 pA and 12 pA).
# By using magnetic conductive nanoparticles as intracellular electrodes for measuring the neuronal action potentials of differentiated SH-SY5Y cells, and combining this with a capacitive potential detection device to measure changes in intracellular potentials, the spontaneous action potentials of these cells were measured. Specifically, 6.25 nM of the T1R3 agonist Aβ25-35 peptide was added to 400 μl of SH-SY5Y cell culture medium, and the spontaneous action potentials before and after the addition of Aβ25-35 peptide were measured to observe the changes.
# This membrane potential recording method focuses on the magnetic conductive nanoparticles penetrating the cell membrane, the cover glass on which the cells are seeded, and the electrode placed below the cover glass forming a capacitor. The charge (Q) charged to this capacitor is recorded as the membrane potential in terms of charge rather than voltage changes. Since the charge (Q) is obtained from Q=CV, where C is the capacitance and V is the potential, the charge changes measured here are influenced by the capacitor (C) (FIG. 43).
# Nav1.1 = test: Patch-clamp recording of VGSC current in HEK (Nav1.1) cells; format: cell-based, human
# From the text: (§1) The cells used in the previous (18-1) experiment were cardiac-type VGSC cells. In this experiment, HEK (Nav1.1) and HEK (Nav1.6) cells, which are considered neuronal VGSC cells, were created. The effects of four peptides—Aβ25-35, Aβ1-38, Aβ1-40, and Aβ1-42—were examined using the same experimental protocol as in (18-1).
# [4] = tested on: VGSC of SH-SY5Y cells (Nav1.7, Nav1.2, Nav1.3); test: Patch-clamp recording of VGSC current in differentiated SH-SY5Y cells; format: cell-based, human; details: 1-6 μM (2 μM in FIG. 4); listed as Aβ25-35 peptide
# From the text: Furthermore, the inventors focused on the relationship between taste receptors, particularly the sweet or umami receptors containing the T1R3 subunit, which are widely expressed in the brain and nervous system, including the hippocampus and cortex. They used human neuroblastoma cells (SH-SY5Y) that functionally express Nav1.2, Nav1.3, and Nav1.7 (as reported in non-patent literature 8), as well as HEK cells stably expressing Nav1.5 (with endogenous expression of T1R1, T1R2, and T1R3). They observed the effects of taste stimuli on sodium channel activation. By reducing the expression of T1R1 and T1R3 genes using silencing vectors, they confirmed that the effects on sodium channel currents induced by taste stimuli act through taste receptor GPCRs.
# The SH-SY5Y cell culture medium was prepared by mixing DMEM (Sigma-Aldrich) and F-12 (Sigma-Aldrich) in equal proportions. To induce neuronal-like differentiation, the medium contained 1% FBS (BioWest), 5% 40 mM L-Glutamine (Fuji Film), and 1% MEM non-essential amino acids (Wako Pure Chemical Industries). During differentiation, SH-SY5Y cells were cultured for at least 5 days with the addition of 10 μM/ml retinoic acid (Fuji Film). In this document, “SH-SY5Y cells” refer to the SH-SY5Y cell line differentiated into neuronal-like cells.
# [5] = tested on: endogenous T1R GPCR of HEK cells; test: Intracellular calcium (Cal-520) in HEK cells stably expressing Nav1.1 with endogenous T1R GPCR; format: cell-based, human; details: 10 nM then 20 nM for Aβ1-40 and Aβ1-42
# Description: Specifically, experiments were conducted as follows using HEK cells stably expressing Nav1.1 (FIG. 45). The calcium-sensitive reagent (Cal-520, AAT Bioquest) was incubated at 37° C. for 60 minutes, followed by incubation at room temperature for 30 minutes, and then changes in intracellular calcium were measured using a fluorescence microscope. […] Initially, 10 nM, followed by 20 nM of Aβ1-40 was applied after 5 minutes (arrow). […] A total of 6 cell groups from two independent experiments were measured, averaged by the maximum fluorescence response value, and the mean and standard error (stderr) were calculated and plotted. […] 10 nM, followed by 20 nM of Aβ1-42 was applied after 5 minutes (arrow). […] A total of 12 cell groups from two independent experiments were measured, averaged by the minimum fluorescence response value, and the mean and standard error (stderr) were calculated and plotted. Similar to the experimental results using the patch-clamp method when Aβ peptide was applied to Nav1.5, it was confirmed from intracellular calcium measurements that the effects of Aβ1-40 and Aβ1-42 were different.
# Nav1.6 [6] = test: Patch-clamp recording of VGSC current in HEK (Nav1.6) cells; format: cell-based, human; remark: listed apart in the source
# From the text: as §1, with “(18-1). […]” for “(18-1).”
# HEK Nav1.5 cells = test: GFP-Tubulin / GFP-Actin cytoskeleton observation in HEK Nav1.5 cells; format: cell-based, human
# From the text: To observe the impact of cinacalcet and Aβ1-42 peptide on microfilament (actin) fiber structures, we labeled cells with GFP-Actin (FIG. 34). […] This experimental approach, using GFP-Tubulin, GFP-Actin, or other fluorescent proteins to label microtubules and microfilaments, can be used to screen compounds that regulate the activity of ion channels and neuronal function-controlling proteins. Additionally, simultaneous labeling of tubulin and actin can be achieved using fluorescent antibodies or phalloidin after cell fixation.
# [7] = tested on: Nav1.5 in T1R3-silenced HEK cells; test: VGSC current in HEK Nav1.5 cells with silenced T1R3; format: cell-based, human
# From the text: The miRNAs Oligo (Thermofisher) used for silencing were annealed to form double-stranded DNA, which was then linked to the miR RNAi Expression Vector using T4 DNA ligase to create the knockdown vector. Specifically, the procedure followed the miR RNAi Expression Vector Kit manual (BLOCK-i™ Pol II miR RNAi Expression Vector Kit with EmGFP (Catalog number: K493600)).
# Since Aβ25-35 peptide produced similar effects (enhancing VGSC activity, lowering the excitability threshold) as glutamine, it was considered that Aβ25-35 peptide might also act on T1R2/T1R3 receptors like glutamine. Therefore, in this implementation example, we used HEK-Nav1.5 cells with silenced T1R3 and compared the effect of Aβ25-35 peptide on VGSC with that in control HEK-Nav1.5 cells.
# To strengthen these findings, we conducted similar experiments using HEK Nav1.5 cells in which T1R3 expression was silenced (FIG. 22). We measured VGSC currents in T1R3-silenced HEK Nav1.5 cells, applying stimuli every 8 seconds.
# Cav1.2 = test: Intracellular calcium measurement in HEK cells stably expressing Cav1.2 after KCl depolarisation; format: cell-based, human; details: 12.5 nM
# Description: Specifically, experiments were conducted using a method to measure intracellular calcium concentration in HEK cells stably expressing Cav1.2. […] High concentrations of KCl depolarize the cell membrane potential by depolarizing the potassium equilibrium potential from the resting potential, activating voltage-gated calcium channels (VGCC, Cav1.2) that are activated by depolarization, and allowing extracellular calcium to flow into the cell through these calcium channels. (FIG. 47A) measures the activation process of intracellular calcium increase caused by the activation of these VGCCs.
# The calcium response to high concentrations of potassium decays with a certain regularity, so the process was approximated using the Hyperbolic Decline formula
# and the difference between the curve obtained (dashed line in FIG. 47A) and the experimental values was calculated to derive the enhancement of intracellular calcium by Aβ1-42 peptide.
# Kv1.2 = test: Patch-clamp recording of Kv1.2 potassium current in HEK cells expressing Kv1.2; format: cell-based, human
# Description: The effects of Aβ peptides or umami substances on sustained potassium currents (VGKC) in cardiac myocytes can be studied using HEK cells expressing VGKC (such as Kv1.2, Kv3.2, Kv3.3) as well as SH-SY5Y cells expressing endogenous T1R GPCRs. For instance, as shown in the implementation example in (FIG. 36B), Aβ peptides were applied to VGKC-expressing human cultured cells, and VGKC currents were recorded using ramp-like or rectangular voltage waveforms via the patch-clamp technique. This allowed measurement of the changes (inhibition) in VGKC currents caused by Aβ peptides. Similar inhibition studies on VGKC can be conducted using umami substance L-glutamate sodium (MSG) (FIG. 36A).
# As shown in (FIG. 37), Aβ1-42 peptide, unlike Aβ25-35 targeting T1R3, interacts with T1R1 and inhibits VGSC currents (FIGS. 37D, E).
substance,measurement,setting,value
Aspartame,IC50,Nav1.5; prepulse −70 mV,15.3 µM
same,IC50,Nav1.5; prepulse −100 mV,49.7 µM
same,Change in cell morphology,SH-SY5Y cells [1],contracted cell morphology; also recorded: cell contraction
same,IC50,"Nav1.6 [2]; HEK Nav1.6, prepulse −80 mV, read-out: IC50 (VGSC inhibition)",17 µM
same,Effects on VGSCs,VGSC,Inhibition of VGSCs
same,Inhibition of VGSC,VGSC; 50 μM,> 90%. Inhibition is due to a parallel shift
same,IC50,VGSC; listed as aspartame,15 to 17 µM and < 17 µM
same,IC50,VGSC,< 50 µM
GSNKGAIIGLM [Aβ25-35],Cell membrane capacitance and VGSC current,"Nav1.5; 12.5 nM, perforated patch-clamp",increase in cell membrane capacitance and VGSC current
same,Cell membrane capacitance and VGSC currents,"Nav1.5; 120 nM, perforated patch-clamp",increased
same,Cell membrane capacitance and VGSC currents,"Nav1.5; 240 nM, perforated patch-clamp",decreased to control levels
same,Effect on VGSC current,"Nav1.5; 1 μM, control HEK Nav1.5 cells",enhancing effect; also recorded: enhancement effect
same,Increase in VGSC current amplitude,Nav1.5; control without anti-T1R3 antibody pre-treatment,10-20%
same,VGSC current density (pA/pF),"Nav1.5; low concentration, perforated patch-clamp",current density of VGSC increased
same,Frequency of spontaneous action potentials,"SH-SY5Y cells [3]; 6.25 nM, NanoCharge method",an increase in spontaneous action potential frequency; also recorded: an increase in the frequency of spontaneous action potentials
same,Excitability / action potential threshold,"SH-SY5Y cells [3]; current clamp, 6-12 pA stimulation",increased the excitability of SH-SY5Y cells; also recorded: threshold for generating action potentials was lowered
same,Effect on VGSC current,Nav1.1,VGSC enhancement
same,Effect on VGSC inward current,[4],enhancement of transient downward VGSC current; also recorded: enhancement of VGSC inward current
same,Effects on VGSCs,VGSC,Enhancement of VGSC
same,Effect on VGSC current in the presence of colchicine,"VGSC; 12.5 nM, colchicine 2.25 μM",inhibits Aβ25-35-induced enhancement; also recorded: no further enhancement of VGSC current was observed
same,Effect on VGSC current,VGSC; 125 nM to 2 μM,Ab25-35 (125 nM to 2 μM) enhances
same,Effect on VGSC current in the presence of Latrunculin A,"VGSC; 12.6 μM LatA, Aβ25-35 printed 12.5 μM",VGSC amplification; also recorded: doubled
same,Enhancement of VGSC current at high(er) concentration,VGSC,VGSC current but not at higher
same,Enhancement of VGSC current at high(er) concentration,VGSC; listed as Ab25-35,Ab25-35 is suppressed
same,Change in intracellular calcium,[5],an increase in intracellular calcium was observed
same,Effect on VGSC current,Nav1.6 [6],VGSC enhancement
same,Microtubule fibrous structure (GFP-Tubulin),HEK Nav1.5 cells; MSG 5 mM,disappearance of microtubule-like structures
same,Effect on VGSC in T1R3-silenced cells,[7],is lost
same,Change in VGSC,[7]; 2 μM,no change in VGSC was observed
same,Effect on VGSC in T1R3-silenced cells,[7]; listed as ab25-35,T1R3 silencing nullifies ab25-35's
"Aβ1-42: amyloid β peptide, Sequence No. 4",Effect on VGSC current,Nav1.5; 12.5 nM and 25 nM,concentration-dependent reductions in VGSC current
same,Effect on Nav1.5 VGSC current,"Nav1.5; 12.5 nM, perforated patch-clamp with Gramicidin",enhanced; also recorded: enhancement effect
same,Shift of I-V plot peak in the hyperpolarizing direction,Nav1.5; 74 nM,5-10 mV
same,Effect on VGSC current,"Nav1.5; 74 nM, whole-cell voltage clamp, listed as Aβ1-42 peptide",decreasing trend; also recorded: suppressed sodium channel currents
same,Intracellular calcium after KCl-induced Cav1.2 activation,Cav1.2,further increase in intracellular calcium
same,Enhancement of intracellular calcium relative to response to high concentrations of potassium,Cav1.2; n=3,about 11%
same,Effect on VGSC current,Nav1.1,enhancement of VGSC was observed
same,Effect on voltage gated K+ channel (Kv1.2) current,Kv1.2,reduced Kv1.2 potassium current; also recorded: concentration-dependently inhibits Kv1.2 potassium currents
same,Effect on voltage gated K+ channel (Kv1.2) current,Kv1.2; listed as Aβ42 peptide,Inhibition of Voltage gated
same,Effect on Nav1.6 VGSC current,Nav1.6 [2]; HEK cells expressing Nav1.6 and Kv1.2,amplified; also recorded: enhancing effect
same,Effect on VGSC inactivation,VGSC,delays the inactivation
same,Effects on VGSCs,VGSC,Delay in VGSC inactivation
same,Change in intracellular calcium,[5],"biphasic response; also recorded: transiently decreased, slowly recovered, and then began to increase"
same,Effect on VGSC current,Nav1.6 [6],enhancement of VGSC was observed
same,Microfilament structure (GFP-Actin),HEK Nav1.5 cells,condensed GFP-Actin structures
same,Effect on VGSC in T1R3-silenced cells,[7],is lost
